The source of these data is ChEMBL document CHEMBL6071161, “Drug repurposing against antibiotic resistant bacterial pathogens” (2024).

In brackets after ≈: the same amount, converted by molar mass.

By MIC is commonly meant the least concentration at which growth counts as inhibited. The term MIC50 denotes the lowest concentration that inhibits either 50% of growth or 50% of the strains tested, depending on the study. High values mean weaker potency, low ones greater potency. As usually defined, the MIC90 is an inhibitory concentration at the 90% level, which refers to growth in some studies and to a panel of isolates in others.

Common to all, as to assay type: functional
The test system of test [1] is Pseudomonas aeruginosa. The test can be described thus: Antibacterial activity against Pseudomonas aeruginosa ATCC 27853 assessed as bacterial growth inhibition measured after 18 hrs by CLSI protocol based two-fold serial microdilution method.
Test [2] concerns Enterococcus faecium. The test can be described thus: Antibacterial activity against Enterococcus faecium assessed as reduction in bacterial growth.
Test [3] has as its system Staphylococcus aureus. The test can be described thus: Antibiofilm activity against Staphylococcus aureus ATCC 25923 assessed as inhibition of biofilm formation incubated for 24 hrs by crystal violet staining based analysis.
The subject of test [4] is Neisseria gonorrhoeae. The test can be described thus: Antibacterial activity against Neisseria gonorrhoeae.
For test [5], the system named is Enterococcus faecalis. The test can be described thus: Antimicrobial activity against Enterococcus faecalis ATCC 29212 assessed as reduction in microbial growth incubated for 16 to 20 hrs by CLSI-protocol based Mueller-Hinton broth assay. As to conditions: time 16-20 hrs.
Test [6] relates to Pseudomonas aeruginosa. The test can be described thus: Antibacterial activity against Pseudomonas aeruginosa ATCC 27853 assessed as reduction in bacterial growth by broth microdilution method.
Test [7] has as its system Klebsiella pneumoniae. The test can be described thus: Antibacterial activity against Klebsiella pneumoniae ATCC 700603 assessed as reduction in bacterial growth by microbroth dilution assay. (Broth dilution looks for growth in wells or tubes with falling amounts of substance.)
Test [8] deals with Helicobacter pylori. The test can be described thus: Antibacterial activity against Helicobacter pylori assessed as inhibition of bacterial growth by broth micro-dilution assay.
In test [9] the test system is Staphylococcus aureus. The test can be described thus: Antimicrobial activity against methicillin-resistant Staphylococcus aureus ATCC 29213 assessed as reduction in microbial growth by CLSI brith micro-dilution method.
For test [10], the system named is Staphylococcus aureus. The test can be described thus: Antibacterial activity against vancomycin-resistant Staphylococcus aureus VRS 1 assessed as reduction in bacterial growth.
The test system of test [11] is Neisseria gonorrhoeae. The test can be described thus: Antibacterial activity against Neisseria gonorrhoeae ATCC 49226 assessed as reduction in bacterial growth incubated for 20 to 24 hrs by CLSI-based protocol based two-fold serial microdilution method. As to conditions: time 20-24 hrs.
In test [12] the test system is Klebsiella pneumoniae. The test can be described thus: Antibacterial activity against Klebsiella pneumoniae ATCC 10031 assessed as reduction in microbial growth after 24 hrs by two-fold serial dilution method.
The test system of test [13] is Staphylococcus aureus. The test can be described thus: Antibacterial activity against Staphylococcus aureus ATCC 25923 assessed as reduction in microbial growth after 24 hrs by two-fold serial dilution method.
Test [14] has as its system Staphylococcus aureus. The test can be described thus: Antimicrobial activity against […] Staphylococcus aureus ATCC 25923 assessed as reduction in microbial growth by CLSI protocol based analysis.
In test [15] the test system is Staphylococcus aureus. The test can be described thus: Antimicrobial activity against methicillin-sensitive Staphylococcus aureus ATCC 29213 assessed as reduction in bacterial growth by CLSI protocol based analysis.
The subject of test [16] is Neisseria gonorrhoeae. The test can be described thus: Antibacterial activity against resistant Neisseria gonorrhoeae assessed inhibition of bacterial growth.
Test [17] concerns Staphylococcus aureus. The test can be described thus: Antibacterial activity against methicillin-resistant Staphylococcus aureus ATCC 43300 assessed as reduction in bacterial growth by CLSI protocol based broth micro-dilution method.
For a further test, the system named is Acinetobacter baumannii. The test can be described thus: Antibacterial activity against Acinetobacter baumannii BAA-1605 assessed as reduction in bacterial growth.
For test [18], the system named is Enterococcus faecium. The test can be described thus: Antibacterial activity against vancomycin-resistant Enterococcus faecium assessed as reduction in bacterial growth CLSI-based double dilution method.
Test [19] deals with Staphylococcus aureus. The test can be described thus: Antibacterial activity against methicillin-resistant Staphylococcus aureus ATCC 43300 assessed as reduction in bacterial growth by CLSI protocol based two-fold serial broth microdilution method.
The subject of test [20] is Enterococcus faecalis. The test can be described thus: Antibacterial activity against […] Enterococcus faecalis ATCC 29212 assessed as reduction in bacterial growth by CLSI protocol based two-fold serial broth microdilution method.
Test [21] relates to Helicobacter pylori. The test can be described thus: Antibacterial activity against Helicobacter pylori ATCC 700392 assessed as reduction in bacterial growth incubated for 24 hrs by broth micro-dilution method.
Test [22] concerns Staphylococcus aureus. The test can be described thus: Antibacterial activity against Staphylococcus aureus RN4220 assessed as inhibition of microbial growth.
In test [23] the test system is Helicobacter pylori. The test can be described thus: Antibacterial activity against Helicobacter pylori ATCC 43504 assessed as reduction in bacterial growth incubated for 24 hrs by broth micro-dilution method.
Test [24] has as its system Pseudomonas aeruginosa. The test can be described thus: Antibacterial activity against Pseudomonas aeruginosa PAO1 assessed as bacterial growth inhibition measured after 18 hrs by CLSI protocol based two-fold serial microdilution method.
Test [25] has as its system Staphylococcus aureus. The test can be described thus: Antimicrobial activity against Staphylococcus aureus ATCC 25923 assessed as reduction in microbial growth after 24 hrs by CLSI based broth microdilution method.
Test [26] concerns Pseudomonas aeruginosa. The test can be described thus: Antibacterial activity against Pseudomonas aeruginosa assessed as inhibition of bacterial growth incubated for 24 hrs by broth microdilution method.
Test [27] concerns Enterococcus faecium. The test can be described thus: Antibacterial activity against Enterococcus faecium.

Consider `CN[C@@H]1[C@@H](O[C@H]2O[C@H](CO)[C@@H](N)[C@H](O)[C@H]2O)O[C@H]2C[C@@H](N)[C@@H](O[C@H]3[C@H](O)[C@@H](O)[C@H](N)C[C@@H]3N)O[C@@H]2[C@@H]1O`, for which, in the test on Pseudomonas aeruginosa [1], the MIC was determined as 32 µg/mL (≈ 59.3 µM).
Consider `O=C(Nc1ccc(C(F)(F)F)cc1)Nc1ccc(C(F)(F)F)cc1`, for which the MIC with Enterococcus faecium [2] came out at 1.6 µM (≈ 0.557 µg/mL). In addition, the MBEC in the test with Staphylococcus aureus [3] was determined as 0.78 µmol/L.
Take `CN(C)Cc1ccc2c(Cl)cc(Cl)c(O)c2n1`: it took 0.31 µg/mL (≈ 1.14 µM) to inhibit growth against Neisseria gonorrhoeae [4] (MIC).
In the case of `CC(C)Oc1ccc(/C=N/NC(=N)N/N=C/c2ccc(OC(C)C)cc2)cc1`, the MIC with Enterococcus faecalis [5] turned out to be 1 µg/mL.
For the compound `CC/C(=C(\c1ccc(O)cc1)c1ccc(OCCN(C)C)cc1)c1ccccc1` [AFIMOXIFENE], the MIC with Pseudomonas aeruginosa [6] was 16 µg/mL (≈ 41.3 µM).
With `Nc1c2ccccc2nc2ccccc12` [AMINACRINE], in the test on Klebsiella pneumoniae [7], the MIC worked out at 8 µg/mL (≈ 41.2 µM).
For `O=C(O)C(=O)CBr` [BROMOPYRUVATE], the MIC in the test on Helicobacter pylori [8] came out at 32 µg/mL (≈ 192 µM).
Consider `Cc1ccc(-c2cc(C(F)(F)F)nn2-c2ccc(S(N)(=O)=O)cc2)cc1` [CELECOXIB], for which the figures for the MIC with Staphylococcus aureus [9] and in the test with Staphylococcus aureus [10] were 32 µg/mL and 128 µg/mL (≈ 336 µM), respectively.
As to `Oc1c(Cl)cc(Cl)c2cccnc12` [CHLOROXINE], in the test on Neisseria gonorrhoeae [11], the MIC was 0.28 µM (≈ 0.0599 µg/mL).
For `Cc1cc(C2CCCCC2)n(O)c(=O)c1` [CICLOPIROX], the MIC in the test with Klebsiella pneumoniae [12] was found to be 5 µg/mL.
As for `Oc1c(I)cc(Cl)c2cccnc12` [CLIOQUINOL], the MIC with Neisseria gonorrhoeae [11] worked out at 0.28 µM (≈ 0.0855 µg/mL).
Regarding `COc1cc(/C=C/C(=O)CC(=O)/C=C/c2ccc(O)c(OC)c2)ccc1O` [CURCUMIN], in the test on Staphylococcus aureus [13], the MIC amounted to 100 µg/mL.
Regarding `CC1=NN(c2ccc(C)c(C)c2)C(=O)/C1=N\Nc1cccc(-c2cccc(C(=O)O)c2)c1O` [ELTROMBOPAG], the MIC in the test on Staphylococcus aureus [14] amounted to 2 µg/mL; with Staphylococcus aureus [15], 2 µg/mL (≈ 4.52 µM).
Take `O=C(O)c1ccccc1Nc1cccc(C(F)(F)F)c1` [FLUFENAMIC ACID]: the MIC50 against Neisseria gonorrhoeae [16] stood at 4 µg/mL (≈ 14.2 µM).
For `CC[C@H](c1ccc(O)cc1)[C@@H](CC)c1ccc(O)cc1` [HEXESTROL], the MIC in the test on Staphylococcus aureus [17] was 16 µg/mL (≈ 59.2 µM).
As to `Oc1c(I)cc(I)c2cccnc12` [IODOQUINOL], the MIC with Neisseria gonorrhoeae [11] was found to be 0.1 µM (≈ 0.0397 µg/mL).
`CO[C@@]12[C@H](COC(N)=O)C3=C(C(=O)C(C)=C(N)C3=O)N1C[C@@H]1N[C@@H]12` [MITOMYCIN]: the MIC in the test on Acinetobacter baumannii was 20 µg/mL (≈ 59.8 µM).
For `CC/C(=C(\c1ccccc1)c1ccc(OCCNC)cc1)c1ccccc1` [N-DESMETHYLTAMOXIFEN], the MIC in the test on Pseudomonas aeruginosa [6] was found to be 16 µg/mL (≈ 44.8 µM).
On to `O=C(Nc1ccc([N+](=O)[O-])cc1Cl)c1cc(Cl)ccc1O` [NICLOSAMIDE], for which the MIC stood at 1 µg/mL (≈ 3.06 µM) with Enterococcus faecium [18], 0.06 µg/mL (≈ 0.183 µM) in the test on Staphylococcus aureus [19] and 0.125 µg/mL (≈ 0.382 µM) with Enterococcus faecalis [20].
As for `COCCOC(=O)C1=C(C)NC(C)=C(C(=O)OC(C)C)C1c1cccc([N+](=O)[O-])c1` (stereo not given) [NIMODIPINE], the MIC with Helicobacter pylori [21] was found to be 4 µg/mL (≈ 9.56 µM).
For the compound `CCOC(=O)C1=C(C)NC(C)=C(C(=O)OC)C1c1cccc([N+](=O)[O-])c1` (stereo not given) [NITRENDIPINE], in the test with Helicobacter pylori [21], the MIC was 4 µg/mL (≈ 11.1 µM).
Regarding `O=C(Nc1cc(Cl)cc(Cl)c1O)c1c(O)c(Cl)cc(Cl)c1Cl` [OXYCLOZANIDE], the MIC in the test with Staphylococcus aureus [22] was found to be 0.125 µg/mL.
For the compound `Oc1cccc2cccnc12` [OXYQUINOLINE], the MIC with Neisseria gonorrhoeae [11] turned out to be 0.08 µM (≈ 0.0116 µg/mL).
In the test with Neisseria gonorrhoeae [16], `NC(=O)c1ccccc1O` [SALICYLAMIDE] returned an MIC of 8 µg/mL (≈ 58.3 µM).
For the compound `CN[C@H]1CC[C@@H](c2ccc(Cl)c(Cl)c2)c2ccccc21` [SERTRALINE], the MIC with Helicobacter pylori [23] was determined as 32 µg/mL (≈ 104 µM).
As for `N[C@@H](CC(=O)N1CCn2c(nnc2C(F)(F)F)C1)Cc1cc(F)c(F)cc1F` [SITAGLIPTIN], in the test on Pseudomonas aeruginosa [24], the minimal inhibitory concentration (MIC) was 16 µg/mL (≈ 39.3 µM).
Take `CN(C)C(=S)SSC(=S)N(C)C` [THIRAM]: in the test with Staphylococcus aureus [25], the MIC90 turned out to be 4 µg/mL.
`NC[C@H]1O[C@H](O[C@H]2[C@H](O)[C@@H](O[C@H]3O[C@H](CO)[C@@H](O)[C@H](N)[C@H]3O)[C@H](N)C[C@@H]2N)[C@H](N)C[C@@H]1O` [TOBRAMYCIN]: the MIC90 in the test with Pseudomonas aeruginosa [26] is 2.2 µg/mL (≈ 4.71 µM).
In turn, `Cc1c(Cl)cccc1Nc1ccccc1C(=O)O` [TOLFENAMIC ACID] yielded an MIC50 against Neisseria gonorrhoeae [16] of 4 µg/mL (≈ 15.3 µM).
Take `CN[C@H](CC(C)C)C(=O)N[C@H]1C(=O)N[C@@H](CC(N)=O)C(=O)N[C@H]2C(=O)N[C@H]3C(=O)N[C@H](C(=O)N[C@H](C(=O)O)c4cc(O)cc(O)c4-c4cc3ccc4O)[C@H](O)c3ccc(c(Cl)c3)Oc3cc2cc(c3O[C@@H]2O[C@H](CO)[C@@H](O)[C@H](O)[C@H]2O[C@H]2C[C@](C)(N)[C@H](O)[C@H](C)O2)Oc2ccc(cc2Cl)[C@H]1O` [VANCOMYCIN]: it took 8 µg/mL (≈ 5.52 µM) to inhibit growth in the test on Enterococcus faecium [27] (MIC).
